Test results published in patent publication US20230416261A1, “ETHANEDIAMINE-HETEROCYCLE DERIVATIVES AS INHIBITORS OF PROTEIN ARGININE METHYLTRANSFERASES” (Board of Regents, The University of Texas System, priority 2021, published 2023).

Columns and labels:
PATC53 cells = experiment: PATC53 Long Term Phenotypic Assay (14 days, crystal violet viability); assay type: cell-based; details: 336 h
Procedure: PATC53 cells were derived from the PATC53 PDX model and kindly provided by Jason Fleming (MDACC). The cells were routinely maintained in DMEM/F12 Medium (Corning, Catalog #10-090-CV) supplemented with 10% fetal bovine serum (Sigma, Catalog #F2442), 100 units/mL penicillin and 100 μg/mL streptomycin (Gibco, Catalog #15140-122) in a humidified incubator (37° C., 5% CO2). Prior to the assay, cells were seeded onto a 12-well, TC treated plate (Corning, catalog #353043) at a density of 250 cells per well in a volume of 1 mL. The plate was incubated for 24 hours at 37° C. and 5% CO2. Stock solutions of the test compounds were prepared in 100% DMSO (Sigma, Catalog #D2650) and serially diluted 1:3 using 100% DMSO. Compounds were additionally diluted 1:100 in culture medium, and 110 μL/well was transferred to the tissue culture plate. Following the compound addition, the plate was incubated at 37° C. and 5% CO2 for 14 days. Viability was then assessed by crystal violet staining (Fisher Scientific, Catalog #C58125) as follows: 450 μL of crystal violet (1 mg/mL) was added to the plate for a 10 minute incubation at room temperature. After incubation, the plate was washed 3× with distilled water to remove excess dye and allowed to dry overnight. The crystal violet was solubilized using 10% HOAc (500 μL) for 10 minutes at room temperature, while shaking. A volume of 100 μL was then transferred to a 96-well SpectraPlate (Perkin Elmer, Catalog #6005649). Absorbance at 590 nm was measured with a BioTek Synergy Neo. IC50 values were calculated using a four-parameter logistic curve fit using Genedata Screener software.

PRMT1 [1] = target: T1, PRMT1 (Homo sapiens, UniProt Q99873); experiment: PRMT1 Enzymatic Assay (LANCE TR-FRET, methylation of histone H4 at Arg3); assay type: biochemical; design: purchased SignalChem P365-380G; details: PRMT1 1.5 nM, SAM 1 μM, biotinylated histone H4 (1-21) 25 nM; read-out: PRMT-1 IC50
Procedure: In order to measure PRMT1 enzymatic activity the LANCE TR-FRET assay from PerkinElmer was used to follow the methylation of histone H4 at Arg3 using S-adenosyl-L-methionine (SAM) as the methyl group donor.
This enzymatic assay was performed in a 384 well, white, low volume plate (PerkinElmer, Catalog 6008289) with assay buffer consisting of 50 mM Hepes (pH 8) (Teknova, Catalog #H1090), 1 mM TCEP (Sigma, Catalog #C4706), and 0.003% Tween-20 (Thermo, Catalog #85114). Stock solutions of the test compounds were prepared in 100% DMSO (Sigma, Catalog #D2650) and serially diluted 1:3 using 100% DMSO. Compounds were additionally diluted 1:40 in assay buffer, and 2 uL/well were transferred to the assay plate. 4 uL/well (final concentration 1.5 nM) of PRMT1 protein (SignalChem, Catalog #P365-380G) diluted in assay buffer was added to the assay plate followed by a 15 min preincubation at room temperature. 4 uL/well of SAM (Sigma, Catalog #A7007) and biotinylated histone H4 (1-21) (AnaSpec, Catalog #62555) (final concentrations 1 μM and 25 nM, respectively) diluted in assay buffer were then added to the assay plate followed by a 1 hour reaction time. Final concentrations of PRMT1, SAM, and histone H4 (1-21) refer to a […].
Detection of methylated histone H4 (H4R^3me) was achieved by combining LANCE Ultra Europium-anti-H4R^3me antibody (PerkinElmer, Catalog #TRF04-14), LANCE Ultra ULight-anti-streptavidin antibody (PerkinElmer, Catalog #TRF0102), and sinefungin (Sigma, Catalog #S8559) (final concentrations 2 nM, 50 nM, and 100 μM respectively) in 1× LANCE detection buffer (PerkinElmer, Catalog #CR97-100) and adding L/well of the detection solution to the assay plate. Detection reagents were allowed to react for 1 hour at room temperature. Final concentrations in the detection solution refer to a L volume. The europium fluorescence signal and the ULight TR-FRET signal were measured using a BioTek Synergy Neo plate reader: excitation at 330 nm, emission at 620 nm and 665 nm respectively, and the ratio of the two signals (665 nm/620 nm) was used for curve fitting. IC50 values were calculated using a four-parameter logistic curve fit using Genedata Screener software.

PRMT1 [2] = target: T1, PRMT1; experiment: PRMT1 RKO Cellular Target Engagement Assay (In-Cell Western, asymmetric di-methyl arginine); assay type: cell-based; details: RKO cells, 48 hr compound incubation; read-out: RKO IC50 (PRMT-1 Target Engagement)
Procedure: RKO cells were routinely maintained in EMEM media (ATCC, Catalog #30-2003) supplemented with 10% fetal bovine serum (Sigma, Catalog #F2442) using a humidified incubator (37° C., 5% CO2, and ambient O2).
In preparation for the In-Cell Western assay, cells were harvested and resuspended in EMEM media supplemented with 10% fetal bovine serum. Cells were seeded onto a 384 well, black, clear bottom, Poly-D-Lysine coated tissue culture plate (Greiner, Catalog #781946) at a density of 1,000 cells/well in a volume of 40 μL. The culture plate was incubated for 24 hr at 37° C. with 5% CO2 and ambient O2. Stock solutions of the test compounds were prepared in 100% DMSO (Sigma, Catalog #D2650) and serially diluted 1:3 using 100% DMSO. Compounds were additionally diluted 1:40 in culture medium, and 10 μL/well was transferred to the tissue culture plate. Following the compound addition the microplate was incubated at 37° C. for 48 hr.
The media was removed, the plate was washed with 1× PBS (Fisher Bioreagents, Catalog #BP399-20), and cells were fixed for 10 min using 30 μL/well of 4% paraformaldehyde (Electron Microscopy Sciences, Catalog #15710). The paraformaldehyde was removed, the plate was again washed with 1× PBS, and cells were permeabilized for 15 min using 30 μL/well of 1× PBS containing 0.5% Triton-X 100 (Sigma, Catalog #1001748095). The permeabilization buffer was removed, the plate was washed with 1× PBST (Boston BioProducts, Catalog #IBB-171X), and 50 μL/well of blocking buffer (LI-COR, Catalog #927-40000) was added followed by a 1 hour incubation at room temperature. The blocking buffer was removed, and 20 μL/well of anti-asymmetric di-methyl arginine antibody (Cell Signaling, Catalog #13522S) diluted 1:1000 in LI-COR blocking buffer was added to the plate and incubated overnight, in the dark at 4° C.
The primary antibody was then removed, and the plate was washed three times with 1× PBST. 20 μL/well of CellTag (LI-COR, Catalog #926-41090) and IRDye 800CW goat anti-rabbit IgG antibody (LI-COR, Catalog #926-32211), each diluted 1:500 in LI-COR blocking buffer supplemented with 0.1% Tween-20 (Thermo Scientific, Catalog #85114), were added to the plate. The plate was then incubated in the dark, at room temperature for 1 hour followed by three washes with 1× PBST and one wash with H2O. The IRDye secondary antibody signal (800 channel) and the CellTag signal (700 channel) were measured using a Licor Odyssey Imager, and the 800 channel signal was then normalized to the 700 channel signal. IC50 values were calculated using a four-parameter logistic curve fit using Genedata Screener software.

DOHH2 cells = experiment: DOHH2 Long Term Phenotypic Assay (7 days, Cell Titer-Glo viability); assay type: cell-based; details: Homo sapiens, DOHH-2, 168 h, Cell Titer-Glo 2.0
Procedure: DOHH2 cells were kindly provided by Michael Green (MDACC). The cells were routinely maintained in RPMI-1640 Medium (ATCC, Catalog #30-2001) supplemented with 10% fetal bovine serum (Sigma, Catalog #F2442), 100 units/mL penicillin and 100 μg/mL streptomycin (Gibco, Catalog #15140-122) in a humidified incubator (37° C., 5% CO2). Cells were seeded onto a white, CulturPlate-384 (Perkin Elmer, catalog #6007680) at a density of 250 cells per well in a volume of 50 μL. Stock solutions of the test compounds were prepared in 100% DMSO (Sigma, Catalog #D2650) and serially diluted 1:3 using 100% DMSO. Compounds were additionally diluted 1:33 in culture medium, and 10 μL/well was transferred to the tissue culture plate. Following the compound addition, the plate was incubated at 37° C. and 5% CO2 for 7 days. Cells were then mixed and a 30 μL volume was removed. Viability was assessed by a 30 μL addition of Cell Titer-Glo 2.0 (Promega, catalog #G9243). The plate was then shaken on an orbital shaker at 300 RPM for 10 minutes at room temperature, in the dark. Luminescence was measured using a PerkinElmer Envision™ plate reader. IC50 values were calculated using a four-parameter logistic curve fit using Genedata Screener software.

T1 sequence (Q99873 whole entry): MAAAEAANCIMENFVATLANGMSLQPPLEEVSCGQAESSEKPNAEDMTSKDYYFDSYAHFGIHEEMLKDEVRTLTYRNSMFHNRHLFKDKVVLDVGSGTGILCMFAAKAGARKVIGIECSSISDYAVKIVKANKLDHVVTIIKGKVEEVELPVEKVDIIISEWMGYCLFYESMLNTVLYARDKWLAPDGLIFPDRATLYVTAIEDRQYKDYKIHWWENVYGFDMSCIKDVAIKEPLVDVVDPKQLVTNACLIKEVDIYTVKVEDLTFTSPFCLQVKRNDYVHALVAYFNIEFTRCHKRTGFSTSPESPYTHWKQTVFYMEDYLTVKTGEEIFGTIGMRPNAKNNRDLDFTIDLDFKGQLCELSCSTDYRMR

IC50 (PRMT1 [1]) [µM]	IC50 (PRMT1 [2]) [µM]	Structure (SMILES)	IC50 (PATC53 cells) [µM]	IC50 (DOHH2 cells) [µM]
0.065	1.11	CNCCN(C)Cc1nn2c(c1C1CCC(COC)(COC)CC1)CN(C(=O)C1COC1)CC2 [Example 9, (3-(4,4-bis(methoxymethyl)-cyclohexyl)-2-((methyl(2-(methylamino)ethyl)amino)-methyl)-6,7-dihydropyrazolo-[1,5-a]pyrazin-5(4H)-yl)-(oxetan-3-yl)methanone]	1.3	–
0.023	–	COCC1(COC)CCC(c2c(CN(C)CCN)nn3c2CN(C(=O)C2COC2)CC3)CC1 [Example 12, (2-(((2-aminoethyl)(methyl)-amino)methyl)-3-(4,4-bis-(methoxymethyl)cyclohexyl)-6,7-dihydropyrazolo[1,5-a]-pyrazin-5(4H)-yl)(oxetan-3-yl)methanone]	3.86	–
0.108	–	CNCCN(C)Cc1nn2c(c1C1CCC(COC)(COC)CC1)CN(C(=O)C1CCOCC1)CC2 [Example 31, (3-(4,4-bis(methoxymethyl)-cyclohexyl)-2-((methyl(2-(methylamino)ethyl)amino)-methyl)-6,7-dihydropyrazolo-[1,5-a]pyrazin-5(4H)-yl)-(tetrahydro-2H-pyran-4-yl)-methanone]	0.595	0.206

Second part, the compound before the results:

Structure (SMILES)	IC50 (PRMT1 [1]) [µM]	IC50 (PRMT1 [2]) [µM]	IC50 (PATC53 cells) [µM]	IC50 (DOHH2 cells) [µM]
CCOCC1(COCC)CCC(c2c(CN(C)CCNC)nn3c2CN(C(=O)CC(F)(F)F)CC3)CC1 [Example 3, 1-(3-(4,4-bis(ethoxymethyl)-cyclohexyl)-2-((methyl(2-(methylamino)ethyl)amino)-methyl)-6,7-dihydropyrazolo-[1,5-a]pyrazin-5(4H)-yl)-3,3,3-trifluoropropan-1-one]	0.057	0.153	0.428	–
CCOCC1(COCC)CCC(c2c(CN(C)CCNC)nn3c2CN(C(=O)C2CC2)CC3)CC1 [Example 4, (3-(4,4-bis(ethoxymethyl)-cyclohexyl)-2-((methyl(2-(methylamino)ethyl)amino)-methyl)-6,7-dihydropyrazolo-[1,5-a]pyrazin-5(4H)-yl)-(cyclopropyl)methanone]	0.048	0.11	1.26	0.047
CNCCN(C)Cc1nn2c(c1C1CCC(COC)(COC)CC1)CN(C(=O)CC(F)(F)F)CC2 [Example 7, 1-(3-(4,4-bis(methoxy-methyl)cyclohexyl)-2-((methyl(2-(methylamino)-ethyl)amino)methyl)-6,7-dihydropyrazolo[1,5-a]-pyrazin-5(4H)-yl)-3,3,3-trifluoropropan-1-one]	0.032	1.62	0.21	–
COCC1(COC)CCC(c2c(CN(C)CCN)nn3c2CN(C(=O)CC(F)(F)F)CC3)CC1 [Example 10, 1-(2-(((2-aminoethyl)-(methyl)amino)methyl)-3-(4,4-bis(methoxymethyl)-cyclohexyl)-6,7-dihydro-pyrazolo[1,5-a]pyrazin-5(4H)-yl)-3,3,3-trifluoropropan-1-one]	0.02	0.695	0.649	–
CNCCN(C)Cc1nn2c(c1C1CCC(COC)(COC)CC1)CN(C(=O)C1(C)CC1)CC2 [Example 17, (3-(4,4-bis(methoxymethyl)-cyclohexyl)-2-((methyl(2-(methylamino)ethyl)amino)-methyl)-6,7-dihydropyrazolo-[1,5-a]pyrazin-5(4H)-yl)(1-methylcyclopropyl)-methanone]	0.056	0.37	0.133	–
CNCCN(C)Cc1nn2c(c1C1CCC(COC)(COC)CC1)CN(C(=O)C13CC(C#N)(C1)C3)CC2 [Example 22, 3-(3-(4,4-bis(methoxy-methyl)cyclohexyl)-2-((methyl(2-(methylamino)-ethyl)amino)methyl)-4,5,6,7-tetrahydropyrazolo[1,5-a]-pyrazine-5-carbonyl)bicyclo[1.1.1] pentane-1-carbonitrile]	0.072	1.4	0.447	–
CNCCN(C)Cc1nn2c(c1C1CCC(COC)(COC)CC1)CN(C(=O)CC1CCOCC1)CC2 [Example 34, 1-(3-(4,4-bis(methoxy-methyl)cyclohexyl)-2-((methyl(2-(methylamino)-ethyl)amino)methyl)-6,7-dihydropyrazolo[1,5-a]-pyrazin-5(4H)-yl)-2-(tetrahydro-2H-pyran-4-yl)ethan-1-one]	0.124	–	0.642	0.198
